Tests used:
Test in all cases: Microbiological challenge testing in BPW broth, graded subculture counts
Assay type in all cases: cell-based
[1] = test system: Staphylococcus epidermidis ATCC 12228
Procedure, shortened: (§1)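 Serial 1:10 dilutions were made in pH 7.2 phosphate buffer and spread-plated onto PCA, and colonies were counted after 48 h or more at 35 °C. In the challenge, BPW–dextrose tubes containing the test material received inoculum at 10^5–10^6 CFU/mL at time zero. Controls without test material served as reference.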

[2] = test system: Pseudomonas aeruginosa Wild type; conditions: P. aeruginosa
Procedure, shortened: as §1

[3] = test system: Candida albicans Wild type; conditions: C. albicans
Procedure, shortened: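 Wild-type C. albicans grown in TSB with 1% dextrose at 22 °C, then adjusted by turbidity and hemocytometer to a 10^8 CFU/mL challenge confirmed on SABD plates. Challenge added to BPW broth containing 1% dextrose, giving 10^5 to 10^6 CFU/mL at time zero; controls in triplicate. Counts by serial dilution and spread-plating after at least 48 h incubation.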

[4] = test system: Aspergillus niger Wild type; conditions: A. niger
Procedure, shortened: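 Wild-type A. niger, grown in TSB with 1% dextrose at 22 °C and on SABD until sporulation, was adjusted to 1.0×10^8 spores/vegetative cells (hemocytometer). It was inoculated in triplicate into BPW with 1% dextrose to give 10^5 to 10^6 CFU/mL at time zero. Counts were by spread plate on SABD, ≥48 h at 22 °C, CFU/mL = count × dilution factor.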

Q: Which “S. epidermidis growth grade, 3 day” value ([1]; 0.5% weight/volume) does the source give for `CC1(C)C(O)C(C)(C)C1O` (stereo not drawn) [TMCBD, 2,2,4,4-tetramethyl-1,3-cyclobutanediol] here?
A: Its value is 4 (1000 to 10,000 colonies countable (thus 10,000 CFU/mL to 100,000 CFU/mL)).

Q: What about the “S. epidermidis growth grade, 13 day” value ([1]; 0.5% weight/volume) of the same compound?
A: The value was 4 (1000 to 10,000 colonies countable (thus 10,000 CFU/mL to 100,000 CFU/mL)).

Q: And the “S. epidermidis growth grade, 30 day” value ([1]; 0.5% weight/volume)?
A: The value was 4 (1000 to 10,000 colonies countable (thus 10,000 CFU/mL to 100,000 CFU/mL)).

Q: And the “S. epidermidis growth grade, 3 day” value ([1]; 1.25% weight/volume)?
A: Its value is 2 (52 to 100 colonies counted (thus 520 to 1000 CFU/mL)).

Q: What about the “S. epidermidis growth grade, 13 day” value ([1]; 1.25% weight/volume) of the same compound?
A: Its value is 3 (100 to 1000 colonies (thus 1000 to 10,000 CFU/mL)).

Q: And the “S. epidermidis growth grade, 30 day” value ([1]; 1.25% weight/volume)?
A: The value was 4 (1000 to 10,000 colonies countable (thus 10,000 CFU/mL to 100,000 CFU/mL)).

Q: And the “S. epidermidis growth grade, 3 day” value ([1]; 2.5% weight/volume)?
A: The value was 2 (52 to 100 colonies counted (thus 520 to 1000 CFU/mL)).

Q: And the “S. epidermidis growth grade, 13 day” value ([1]; 2.5% weight/volume)?
A: Its value is 2 (52 to 100 colonies counted (thus 520 to 1000 CFU/mL)).

Q: What about the “S. epidermidis growth grade, 30 day” value ([1]; 2.5% weight/volume) of the same compound?
A: Its value is 2 (52 to 100 colonies counted (thus 520 to 1000 CFU/mL)).

Q: What about the “S. epidermidis growth grade, 3 day” value ([1]; 5.0% weight/volume) of the same compound?
A: The value was 1 (0 to 51 colonies counted (thus 10 to 510 CFU/mL based on 0.1-mL sample)).

Q: What about the “S. epidermidis growth grade, 13 day” value ([1]; 5.0% weight/volume) of the same compound?
A: Its value is 0.

Q: And the “S. epidermidis growth grade, 30 day” value ([1]; 5.0% weight/volume)?
A: Its value is 0.

Q: What about the Grade ([2]; 0.5% (wt/vol), 3 day) of the same compound?
A: Its Grade is 5 (More than 10,000 colonies estimated (thus more than 100,000 CFU/mL)).

Q: What about the Grade ([2]; 0.5% (wt/vol), 13 day) of the same compound?
A: Its Grade is 5 (More than 10,000 colonies estimated (thus more than 100,000 CFU/mL)).

Q: What about the Grade ([2]; 0.5% (wt/vol), 30 day) of the same compound?
A: The Grade was 5 (More than 10,000 colonies estimated (thus more than 100,000 CFU/mL)).

Q: And the Grade ([2]; 1.25% (wt/vol), 3 day)?
A: Its Grade is 4 (1000 to 10,000 colonies countable (thus 10,000 CFU/mL to 100,000 CFU/mL)).

Q: What about the Grade ([2]; 1.25% (wt/vol), 13 day) of the same compound?
A: Its Grade is 4 (1000 to 10,000 colonies countable (thus 10,000 CFU/mL to 100,000 CFU/mL)).

Q: And the Grade ([2]; 1.25% (wt/vol), 30 day)?
A: Its Grade is 4 (1000 to 10,000 colonies countable (thus 10,000 CFU/mL to 100,000 CFU/mL)).

Q: What about the Grade ([2]; 2.5% (wt/vol), 3 day) of the same compound?
A: The Grade was 4 (1000 to 10,000 colonies countable (thus 10,000 CFU/mL to 100,000 CFU/mL)).

Q: What about the Grade ([2]; 2.5% (wt/vol), 13 day) of the same compound?
A: The Grade was 3 (100 to 1000 colonies (thus 1000 to 10,000 CFU/mL)).

Q: And the Grade ([2]; 2.5% (wt/vol), 30 day)?
A: The Grade was 4 (1000 to 10,000 colonies countable (thus 10,000 CFU/mL to 100,000 CFU/mL)).

Q: And the Grade ([2]; 5.0% (wt/vol), 3 day)?
A: Its Grade is 3 (100 to 1000 colonies (thus 1000 to 10,000 CFU/mL)).

Q: What about the Grade ([2]; 5.0% (wt/vol), 13 day) of the same compound?
A: The Grade was 1 (0 to 51 colonies counted (thus 10 to 510 CFU/mL based on 0.1-mL sample)).

Q: What about the Grade ([2]; 5.0% (wt/vol), 30 day) of the same compound?
A: The Grade was 0.

Q: And the Grade ([3]; 0.5% (wt/vol), 3 day)?
A: Its Grade is 4 (1000 to 10,000 colonies countable (thus 10,000 CFU/mL to 100,000 CFU/mL)).

Q: And the Grade ([3]; 0.5% (wt/vol), 14 day)?
A: Its Grade is 4 (1000 to 10,000 colonies countable (thus 10,000 CFU/mL to 100,000 CFU/mL)).

Q: What about the Grade ([3]; 0.5% (wt/vol), 30 day) of the same compound?
A: Its Grade is 4 (1000 to 10,000 colonies countable (thus 10,000 CFU/mL to 100,000 CFU/mL)).

Q: And the Grade ([3]; 1.25% (wt/vol), 3 day)?
A: The Grade was 3 (100 to 1000 colonies (thus 1000 to 10,000 CFU/mL)).

Q: What about the Grade ([3]; 1.25% (wt/vol), 14 day) of the same compound?
A: The Grade was 4 (1000 to 10,000 colonies countable (thus 10,000 CFU/mL to 100,000 CFU/mL)).

Q: And the Grade ([3]; 1.25% (wt/vol), 30 day)?
A: Its Grade is 4 (1000 to 10,000 colonies countable (thus 10,000 CFU/mL to 100,000 CFU/mL)).

Q: What about the Grade ([3]; 2.5% (wt/vol), 3 day) of the same compound?
A: Its Grade is 3 (100 to 1000 colonies (thus 1000 to 10,000 CFU/mL)).

Q: What about the Grade ([3]; 2.5% (wt/vol), 14 day) of the same compound?
A: Its Grade is 2 (52 to 100 colonies counted (thus 520 to 1000 CFU/mL)).

Q: And the Grade ([3]; 2.5% (wt/vol), 30 day)?
A: Its Grade is 2 (52 to 100 colonies counted (thus 520 to 1000 CFU/mL)).

Q: And the Grade ([3]; 5.0% (wt/vol), 3 day)?
A: The Grade was 2 (52 to 100 colonies counted (thus 520 to 1000 CFU/mL)).

Q: What about the Grade ([3]; 5.0% (wt/vol), 14 day) of the same compound?
A: The Grade was 0.

Q: And the Grade ([3]; 5.0% (wt/vol), 30 day)?
A: The Grade was 0.

Q: What about the Grade ([4]; 0.5% (wt/vol), 3 day) of the same compound?
A: The Grade was 5.

Q: And the Grade ([4]; 0.5% (wt/vol), 13 day)?
A: The Grade was 5.

Q: And the Grade ([4]; 0.5% (wt/vol), 30 day)?
A: Its Grade is 5.

Q: What about the Grade ([4]; 1.25% (wt/vol), 3 day) of the same compound?
A: The Grade was 4.

Q: What about the Grade ([4]; 1.25% (wt/vol), 13 day) of the same compound?
A: The Grade was 4.

Q: And the Grade ([4]; 1.25% (wt/vol), 30 day)?
A: The Grade was 4.

Q: What about the Grade ([4]; 2.5% (wt/vol), 3 day) of the same compound?
A: Its Grade is 3.

Q: What about the Grade ([4]; 2.5% (wt/vol), 13 day) of the same compound?
A: The Grade was 2 (Countable (10 to 100 colonies)).

Q: And the Grade ([4]; 2.5% (wt/vol), 30 day)?
A: Its Grade is 3.

Q: What about the Grade ([4]; 5.0% (wt/vol), 3 day) of the same compound?
A: The Grade was 2 (Countable (10 to 100 colonies)).

Q: What about the Grade ([4]; 5.0% (wt/vol), 13 day) of the same compound?
A: Its Grade is 0.

Q: What about the Grade ([4]; 5.0% (wt/vol), 30 day) of the same compound?
A: The Grade was 0.

Reference: US20100160454A1, “ANTIMICROBIAL AGENTS, COMPOSITIONS AND PRODUCTS CONTAINING THE SAME, AND METHODS OF USING THE COMPOSITIONS AND PRODUCTS” (Eastman Chemical Company, priority 2008, published 2010)
